Test results taken from patent publication US11161839B2, “2-quinolone derived inhibitors of BCL6” (Cancer Research Technology Limited, priority 2017, dated 2021).

Legend:
BCL6 = BCL6 (Homo sapiens (Human), UniProt P41182); assay: assays described in the Examples section (not specified which); conditions: tested compounds outside desired/preferred activity
Procedure: DC50 values (compound concentration at which 50% of endogenous BCL6 protein is degraded) were determined in SUDHL-4 cells (American Type Culture Collection) in an immunofluorescence-based assay using an InCell2200 high content imaging system (GE Healthcare). Briefly, 40 μL of lymphoma suspension cells cultured in RPMI 1640-10% FBS (Sigma-Aldrich or PAN Biotech UK Ltd) were platted on fibronectin (Sigma catalogue F1141)-coated 384 well Cell Carrier Ultra plate (Perkin Elmer catalogue 6057300) at 1.2 104 cells/well. After 20 hours cell culture at 37° C./C02 incubator, compounds were dispensed in the cell culture plate using ECHO550 acoustic dispenser (Labcyte, Inc.), as 8 point-concentration response (ranging from 5 nM to 10 μM) in 0.67% final DMSO concentration. Cells were incubated with compound for 2 hours at 37° C./C02 incubator followed by fixation in 4.5% formaldehyde (37% formaldehyde solution, Sigma catalogue F8775) at room temperature for 15 min. After fixing, cells were washed in 1×TBS (Tris Buffer Saline) using a Power Washer 384 (Tecan Group Ltd). Blocking and cell permeabilisation were performed by incubating the fixed cells for 1 hour at room temperature in 1×TBS, 5% BSA, 1% Triton X100, followed by three washes on PW384 plate washer. Primary and secondary antibodies were prepared in 1×TBS, 1% BSA, 0.2% Triton X100. BCL6 expression was detected by incubating the cells for 1 h30 with BCL6 rabbit polyclonal antibody (Sigma Catalogue HPA004899) at 1:250, 0.8 μg/ml, followed by 1 hour in chicken anti-Rabbit Alexa 488 conjugated antibody (Life Technology) at 1:500. After incubation in each antibody, cells were washes four times in 1×TBS-0.05% tween on PW384 plate washer. Cells were finally incubated for 60 min with nuclear staining RedDot2 dye (Biotium) at 0.5× the stock concentration in 1×TBS. BCL6 expression in the absence or presence of compound was detected on InCell2200 with 20× objective and quantified on InCell Analyser 3.7.2 workstation (GE Healthcare). The % response at each concentration was calculated by normalising BCL6 expression in the presence of compound to the appropriate high (DMSO) and low (DMSO with 7 μM CCT369260) controls.
(§1) The volume of medium containing 2000 cells in the control well was calculated and this volume of cells was transferred from every well of the assay plates to the corresponding well of the fresh plates containing compound. After 14 days, CellTiter Glo reagent (Promega) was added to the medium in each well of the assay plate at a ratio of 1:2, mixed on a plate shaker, then incubated at room temperature for 10 minutes. Luminescence was measured using an Envision plate reader (Perkin Elmer) and the relative luminescence at each compound concentration, compared to DMSO alone, was calculated. IC50 were determined using a 4-parameter curve fit in Dotmatics (Bishops Stortford, UK).

[1] = target: human BCL6 BTB domain (Trx-6xHis-BCL6) (Homo sapiens (Human), UniProt P41182); assay: HTRF in vitro assay (BCL6 BTB domain / BCOR-AF633 peptide); type: binding; conditions: further generated data (Table 1b), 1 nM Trx-6xHis-BCL6, 0.5 nM anti-6xHis-Terbium cryptate; for IC50: read-out: HTRF pIC50 (converted)
Procedure: The % inhibition at each concentration was calculated by normalising FRET ratio to the appropriate high (DMSO with all reagents) and low (DMSO without BCL6) controls.

SU-DHL-4 cells = assay: 14-day cell proliferation assay (CellTiter Glo); type: cell-based; conditions: Homo sapiens, SU-DHL4 cells, 14 days
Procedure: as §1

[2] = target: BCL6-NCOR2(SMRT) corepressor protein-protein interaction (Homo sapiens (Human), UniProt P41182); assay: NanoBRET cell assay in transfected HEK293T cells; type: cell-based; conditions: further generated data (Table 2b); HEK293T cells, 6 hr; read-out: NanoBRET cell pIC50 (converted)

Compound: CCNc1cc(=O)n(C)c2ccc(Nc3ccnc(Cl)c3C#N)nc12 [2-chloro-4-((8-(ethylamino)-5-methyl-6-oxo-5,6-dihydro-1,5-naphthyridin-2-yl)amino)nicotinonitrile]
- activity in the assays described in the Examples section (BCL6): not to exhibit the preferred activity

Compound: Cn1c(=O)cc(NCc2ncccn2)c2cc(Nc3ccnc(Cl)c3C#N)ccc21 [2-chloro-4-[[1-methyl-2-oxo-4-(pyrimidin-2-ylmethylamino)-6-quinolyl]amino]pyridine-3-carbonitrile]
- activity in the assays described in the Examples section (BCL6): not to exhibit the preferred activity

Compound: CN1CCC(Nc2cc(=O)n(C)c3ccc(Nc4ccnc(Cl)c4C#N)cc23)C1=O (stereo not shown) [2-chloro-4-((1-methyl-4-((1-methyl-2-oxopyrrolidin-3-yl)amino)-2-oxo-1,2-dihydroquinolin-6-yl)amino)nicotinonitrile]
- activity in the assays described in the Examples section (BCL6): not to exhibit the preferred activity

Compound: Cn1c(=O)cc(NC2CCCNC2=O)c2cc(Nc3ccnc(Cl)c3C#N)ccc21 (stereo not shown) [2-chloro-4-((1-methyl-2-oxo-4-((2-oxopiperidin-3-yl)amino)-1,2-dihydroquinolin-6-yl)amino)nicotinonitrile]
- activity in the assays described in the Examples section (BCL6): did not exhibit the desired activity

Compound: C[C@@H]1CN(c2ncc(Cl)c(Nc3ccc4c(c3)c(NC(C)(C)c3ncccn3)nc(=O)n4C)n2)C[C@H](C)C1(F)F [Example 25a, 6-((5-chloro-2-((3R,5S)-4,4-difluoro-3,5-dimethylpiperidin-1-yl)pyrimidin-4-yl)amino)-1-methyl-4-((2-(pyrimidin-2-yl)propan-2-yl)amino)quinazolin-2(1H)-one]
- HTRF pIC50 [1]: 6.73
- GI50 (SU-DHL-4 cells): 110 nM

Compound: Cc1cc(C)n(-c2ncc(Cl)c(Nc3ccc4c(c3)c(N[C@H](C)C3CC3)cc(=O)n4C)n2)n1 [Example 14c, (R)-6-((5-chloro-2-(3,5-dimethyl-1H-pyrazol-1-yl)pyrimidin-4-yl)amino)-4-((1-cyclopropylethyl)amino)-1-methylquinolin-2(1H)-one]
- HTRF pIC50 [1]: 6.54
- GI50 (SU-DHL-4 cells): 760 nM
- IC50 [2]: 891 nM

Compound: CC(Nc1cc(=O)n(C)c2ccc(Nc3ccnc(Cl)c3C#N)cc12)c1ncc(N2CCOC(C(F)(F)F)C2)cn1 (stereo not shown) [Example 10d, 2-chloro-4-((1-methyl-2-oxo-4-((1-(5-(2-(trifluoromethyl)morpholino)pyrimidin-2-yl)ethyl)amino)-1,2-dihydroquinolin-6-yl)amino)nicotinonitrile]
- HTRF pIC50 [1]: 7.33
- GI50 (SU-DHL-4 cells): 1480 nM
- IC50 [2]: 589 nM

Compound: CC(Nc1cc(=O)n(C)c2ccc(Nc3ccnc(Cl)c3C#N)cc12)c1ncc(-c2cnn(C)c2)cn1 (stereo not shown) [Example 10c, 2-chloro-4-((1-methyl-4-((1-(5-(1-methyl-1H-pyrazol-4-yl)pyrimidin-2-yl)ethyl)amino)-2-oxo-1,2-dihydroquinolin-6-yl)amino)nicotinonitrile]
- HTRF pIC50 [1]: 7.45
- GI50 (SU-DHL-4 cells): 460 nM
- IC50 [2]: 490 nM

Compound: CC(Nc1cc(=O)n(C)c2ccc(Nc3ccnc(Cl)c3C#N)cc12)c1ncc(N2C[C@@H](C)O[C@@H](C)C2)cn1 (stereo partly drawn) [Example 10b, 2-chloro-4-((4-((1-(5-((2S,6R)-2,6-dimethylmorpholino)pyrimidin-2-yl)ethyl)amino)-1-methyl-2-oxo-1,2-dihydroquinolin-6-yl)amino)nicotinonitrile]
- HTRF pIC50 [1]: 7.39
- GI50 (SU-DHL-4 cells): 290 nM
- IC50 [2]: 490 nM

Compound: CC(Nc1cc(=O)n(C)c2ccc(Nc3ccnc(Cl)c3C#N)cc12)c1ncc(C2CCOCC2)cn1 (stereo not shown) [Example 10w, 2-chloro-4-[[1-methyl-2-oxo-4-[1-(5-tetrahydropyran-4-ylpyrimidin-2-yl)ethylamino]-6-quinolyl]amino]pyridine-3-carbonitrile]
- HTRF pIC50 [1]: 7.58
- GI50 (SU-DHL-4 cells): 1340 nM
- IC50 [2]: 912 nM

Compound: C[C@@H]1CN(c2ncc(Cl)c(Nc3ccc4c(c3)c(NC(C)(C)c3ncccn3)nc(=O)n4C)n2)C[C@H](C)O1 [Example 26f, 6-[[5-chloro-2-[(2R,6S)-2,6-dimethylmorpholin-4-yl]pyrimidin-4-yl]amino-1-methyl-4-[(1-methyl-1-pyrimidin-2-yl)ethyl)amino]quinazolin-2-one:formic acid (1:1)]
- HTRF pIC50 [1]: 6.99
- GI50 (SU-DHL-4 cells): 440 nM
- IC50 [2]: 676 nM

Compound: Cn1c(=O)cc(NC(C)(C)c2ncccn2)c2cc(Nc3cc(C(=O)N4CC(C(F)(F)F)C4)nc(Cl)c3C#N)ccc21 [Example 8d, 2-chloro-4-((1-methyl-2-oxo-4-((2-(pyrimidin-2-yl)propan-2-yl)amino)-1,2-dihydroquinolin-6-yl)amino)-6-(3-(trifluoromethyl)azetidine-1-carbonyl)nicotinonitrile]
- HTRF pIC50 [1]: 7.50
- GI50 (SU-DHL-4 cells): 450 nM
- IC50 [2]: 240 nM

Compound: Cn1c(=O)cc(NC(C)(C)c2ncccn2)c2cc(Nc3ccnc(Cl)c3Cl)ccc21 [Example 6b, 6-((2,3-dichloropyridin-4-yl)amino)-1-methyl-4-((2-(pyrimidin-2-yl)propan-2-yl)amino)quinolin-2(1H)-one]
- HTRF pIC50 [1]: 6.81
- GI50 (SU-DHL-4 cells): 2130 nM
- IC50 [2]: 1380 nM

Compound: CC(Nc1cc(=O)n(C)c2ccc(Nc3ccnc(Cl)c3C#N)cc12)c1ncc(C2CC2)cn1 (stereo not shown) [Example 10e, 2-chloro-4-((4-((1-(5-cyclopropylpyrimidin-2-yl)ethyl)amino)-1-methyl-2-oxo-1,2-dihydroquinolin-6-yl)amino)nicotinonitrile]
- GI50 (SU-DHL-4 cells): 1720 nM

Compound: CNC(=O)c1cc(Nc2ccc3c(c2)c(NC(C)(C)COC)cc(=O)n3C)c(C#N)c(Cl)n1 [Example 7d, 6-chloro-5-cyano-4-[[4-[(2-methoxy-1,1-dimethyl-ethyl)amino]-1-methyl-2-oxo-6-quinolyl]amino]-N-methyl-pyridine-2-carboxamide]
- HTRF pIC50 [1]: 6.85
- IC50 [2]: 977 nM

Compound: Cn1c(=O)cc(NC(C)(C)c2ncc(C3CC3)cn2)c2cc(Nc3ccnc(Cl)c3Cl)ccc21 [Example 6j, 4-((2-(5-cyclopropylpyrimidin-2-yl)propan-2-yl)amino)-6-((2,3-dichloropyridin-4-yl)amino)-1-methylquinolin-2(1H)-one]
- HTRF pIC50 [1]: 6.84
- IC50 [2]: 1200 nM

Compound: CC(Nc1nc(=O)n(C)c2ccc(Nc3nc(N4CCC(F)(F)CC4)ncc3Cl)cc12)c1ncccn1 (stereo not shown) [Example 12a, 6-((5-Chloro-2-(4,4-difluoropiperidin-1-yl)pyrimidin-4-yl)amino)-1-methyl-4-((1-(pyrimidin-2-yl)ethyl)amino)quinazolin-2(1H)-one]
- IC50 [1]: 191 nM
- IC50 [2]: 2340 nM

Compound: CC(Nc1cc(=O)n(C)c2ccc(Nc3nc(N4CCC(F)(F)C(CO)C4)ncc3Cl)cc12)c1ncccn1 (single isomer, unassigned) [Example 26d]
- IC50 [1]: 501 nM
- IC50 [2]: 3800 nM

Compound: CC(Nc1cc(=O)n(C)c2ccc(Nc3nc(N4CCC(F)(F)CC4)ncc3Cl)cc12)c1ncccn1 (stereo not shown) [Example 17i, 6-((5-chloro-2-(4,4-difluoropiperidin-1-yl)pyrimidin-4-yl)amino)-1-methyl-4-((1-(pyrimidin-2-yl)ethyl)amino)quinolin-2(1H)-one]
- HTRF pIC50 [1]: 6.20
- IC50 [2]: 2820 nM

Compound: CC(Nc1nc(=O)n(C)c2ccc(Nc3nc(N4C[C@@H](C)C(F)(F)[C@@H](C)C4)ncc3Cl)cc12)c1ncccn1 (mixture of isomers) [Example 12h, rac-6-((5-chloro-2-((3R,5S)-4,4-difluoro-3,5-dimethylpiperidin-1-yl)pyrimidin-4-yl)amino)-1-methyl-4-((1-(pyrimidin-2-yl)ethyl)amino)quinazolin-2(1H)-one]
- IC50 [1]: 251 nM
- GI50 (SU-DHL-4 cells): 340 nM
